Key:
[1] = tested on: SGC-7901 cisplatin-sensitive cancer cells; assay: MTT cytotoxicity, cisplatin-sensitive SGC-7901; assay type: cell-based; details: 72 h
Source text: (§1) All cells were obtained from the American Type Culture Collection (Rockville, MD, USA) unless otherwise specified. Immortalized wild-type and Atg7-deficient mouse embryonic fibroblasts (MEFs) were kindly provided by Professor Masaaki Komatsu (Juntendo University, School of Medicine, Japan). Taxol-resistant types of MCF-7, HCT-8, A549 cancers cells and cisplatin-resistant SGC7901 cancer cells were purchased from KeyGEN BioTECH, China. Cisplatin-sensitive or –resistant A2780, OV2008 and C13 cancer cells were kindly provided by Prof. Benjamin Tsang (Department of Obstetrics and Gynecology and Department of Cellular and Molecular Medicine, University of Ottawa, Canada). HCT116 p53^+/+ and p53^−/− isogenic human colon cancer cells were kindly provided by Professor Bert Vogelstein (Ludwig Center at Johns Hopkins, Howard Hughes Medical Institute, USA). All media were supplemented with 10% fetal bovine serum and antibiotics penicillin (50 U/ml) and streptomycin (50 μg/ml; Invitrogen, Paisley, Scotland, UK). All cell cultures were incubated at 37°C in a 5% humidified CO2 incubator.
(§2) All tested compounds were dissolved in DMSO at a final concentration of 50 mmol/L and stored at −20°C before use. Cytotoxicity was assessed by using the 3-(4,5-dimethylthiazol-2-yl)-2, 5-diphenyltetrazolium bromide (MTT) (5.0 mg/ml) assay as previously described. Briefly, 4×10^3 cells per well were seeded in 96-well plates before drug treatments. After overnight culture, the cells were then exposed to different concentrations of selected compounds ([…]) for 72 hours. Cells without drug treatment were used as control. Subsequently, MTT (10 μL) solution was added to each well and incubated at 37°C for 4 hours followed by the addition of 100 μL solubilization buffer (10%SDS in 0.01 mol/L HCl) and overnight incubation. A570 nm was then determined in each well on the next day. The percentage of cell viability was calculated using the following formula: Cell viability (%) = Atreated/Acontrol × 100. Data were obtained from three independent experiments.

[2] = tested on: A2780 cisplatin-sensitive cancer cells; assay: MTT cytotoxicity, cisplatin-sensitive A2780; assay type: cell-based; details: 72 h
Source text: as §1, §2

[3] = tested on: cisplatin-resistant cancer cells (A2780, SGC-7901, OV2008 and C13); assay: MTT cytotoxicity, summary over cisplatin-sensitive/resistant pairs; assay type: cell-based; details: over A2780, SGC-7901, OV2008/C13 pairs
Description: as §2

[4] = tested on: SGC-7901 cisplatin-resistant cancer cells; assay: MTT cytotoxicity, cisplatin-resistant SGC-7901; assay type: cell-based; details: for IC50: SGC-7901 cisplatin-resistant, MTT, 72 h; for Resistant Factor, SGC-7901: cisplatin-resistant over cisplatin-sensitive IC50, SGC-7901
Source text: as §1, §2

[5] = tested on: OV2008 (cisplatin-sensitive) cells; assay: MTT cytotoxicity, OV2008 (cisplatin-sensitive); assay type: cell-based; details: 72 h, read-out: IC50 value, cisplatin-sensitive cancer, OV2008
Source text: as §1, §2

[6] = tested on: A2780 cisplatin-resistant cancer cells; assay: MTT cytotoxicity, cisplatin-resistant A2780; assay type: cell-based; details: for IC50: A2780 cisplatin-resistant, MTT, 72 h; for Resistant Factor, A2780: cisplatin-resistant over cisplatin-sensitive IC50, A2780
Source text: as §1, §2

[7] = tested on: C13 (cisplatin-resistant) cells; assay: MTT cytotoxicity, C13 (cisplatin-resistant); assay type: cell-based; details: for IC50: C13 (cisplatin-resistant), MTT, 72 h, read-out: IC50 value, cisplatin-resistant cancer, C13; for Resistant Factor, OV2008/C13 pair: C13 (resistant) IC50 over OV2008 (sensitive) IC50
Source text: as §1, §2

[8] = Pharmacokinetic study (HPLC-MS of blood samples); assay type: in vivo; details: male C57BL/6 mice
Description: Pharmacokinetic study of cobalt complex 2 was performed in male C57BL/6 mice by the dosage of 40 mg/kg. The source of mouse and practice of husbandry were the same as described in the methodology section of LLC-1 Xenograft Tumor experiment. Cobalt complex 2 was diluted in the formula (PEG400: H2O: Ethanol = 6:3:1) and administered by intraperitoneal in a volume of 0.005 mL/g bodyweight. After dosing, blood samples were collected to sodium heparin anticoagulant tube at different time points (5, 15, 30 min, and then 1, 2, 4, 8, 12 and 24 hours); 4 mice were used for each time point. Approximately 200 μL of blood was collected via orbital vein from each anesthetized mouse by isoflurane. Plasma was separated by centrifugation at 3000 g for 10 minutes at 4°C. The plasma was protected and stored at −80°C until analyzed by liquid chromatography-mass spectrometry/mass spectrometry (LC-MS/MS) for quantification.
Plasma samples were thawed at room temperature and then vortexed to ensure sample solution homogeneity. Firstly, a 20 μL aliquot of each plasma sample were loaded into 1.5 mL tube, 100 μL acetonitrile was added, vortexed then centrifuged at 13000 rpm for 10 min. the supernatant was collected. The plasma cobalt complex 2 concentrations were quantified using Thermo HPLC Ultimate 3000 system. The compound in plasma samples were analyzed by using the Agilent Zorbax Eclipse Plus C-18 column with a particle size of 1.8 μm. The parameters of the gradient elution program were applied as follows: mobile phase A (0.1% formic acid in water) and mobile phase B acetonitrile: 0–5.5 min, 20% B; 5.5–7 min, 90% B; 7–10 min, 20% B. The column and autosampler temperature were maintained at 40 and 4 °C, respectively. The gas temperature was set 320 °C with flow rate (0.8 mL/min), gases were set at 10 psi for the nebulizer, capillary, 3500 V.

[9] = tested on: HCT116 p53^+/+ colon cancer cells; assay: MTT cytotoxicity, HCT116 p53+/+; assay type: cell-based, human; details: 72 h
Source text: as §1, §2

[10] = tested on: HCT-8 taxol-resistant cancer cells; assay: MTT cytotoxicity, taxol-resistant HCT-8; assay type: cell-based
Source text: as §1, §2

[11] = tested on: MCF-7 taxol-sensitive cancer cells; assay: MTT cytotoxicity, taxol-sensitive MCF-7; assay type: cell-based; details: 72 h
Source text: as §1, §2

[12] = tested on: HCT-8 taxol-sensitive cancer cells; assay: MTT cytotoxicity, taxol-sensitive HCT-8; assay type: cell-based; details: 72 h
Source text: as §1, §2

[13] = tested on: MCF-7 (breast cancer) cells; assay: MTT cytotoxicity assay, MCF-7; assay type: cell-based; details: MCF-7, MTT, 72 h
Description: as §2

[14] = tested on: LLC-1 (mouse lung cancer) cells; assay: MTT cytotoxicity assay, LLC-1; assay type: cell-based; details: LLC-1, MTT, 72 h
Description: as §2

[15] = tested on: A549 taxol-sensitive cancer cells; assay: MTT cytotoxicity, taxol-sensitive A549; assay type: cell-based; details: 72 h
Source text: as §1, §2

[16] = tested on: Hep3B (liver cancer) cells; assay: MTT cytotoxicity assay, Hep 3B; assay type: cell-based; details: 72 h
Description: as §2

[17] = tested on: panel of cancer cells; assay: MTT cytotoxicity assay, summary over the panel of cancer cells; assay type: cell-based; details: range over the cancer cell lines of Table 1, MTT, 72 h; read-out: mean IC50 values ranged (over the cancer cell lines)
Description: as §2

[18] = tested on: H1975 (EGFR mutant lung cancer) cells; assay: MTT cytotoxicity assay, H1975; assay type: cell-based; details: 72 h
Description: as §2

[19] = tested on: MCF-7 taxol-resistant cancer cells; assay: MTT cytotoxicity, taxol-resistant MCF-7; assay type: cell-based
Source text: as §1, §2

[20] = tested on: normal human LO2 hepatocytes; assay: MTT cytotoxicity assay, LO2; assay type: cell-based; details: 72 h
Description: as §2

[21] = tested on: HCT116 p53^-/- colon cancer cells; assay: MTT cytotoxicity, HCT116 p53-/-; assay type: cell-based, human
Source text: as §1, §2

[22] = tested on: A549 (EGFR wild-type lung cancer) cells; assay: MTT cytotoxicity assay, A549; assay type: cell-based; details: 72 h
Description: as §2

[23] = tested on: H1299 (lung cancer) cells; assay: MTT cytotoxicity assay, H1299; assay type: cell-based, human; details: 72 h
Description: as §2

[24] = tested on: HeLa (cervical cancer) cells; assay: MTT cytotoxicity assay, HeLa; assay type: cell-based; details: 72 h
Description: as §2

[25] = tested on: A549 taxol-resistant cancer cells; assay: MTT cytotoxicity, taxol-resistant A549; assay type: cell-based
Source text: as §1, §2

[26] = tested on: HepG2 (liver cancer) cells; assay: MTT cytotoxicity assay, HepG2; assay type: cell-based; details: 72 h
Description: as §2

Structure (SMILES): N.N.[Cl][Pt][Cl] [Cisplatin, cis-[Pt^II(NH3)2Cl2], reference compound]
- IC50 [1]: 3.92 µM
- IC50 [2]: 15.1 µM
- resistant factor in cisplatin-resistant cancers (summary) [3]: up to 13.25
- IC50 [4]: 43 µM
- Resistant Factor, SGC-7901 [4]: 10.97
- IC50 [5]: 18.2 µM
- IC50 [6]: > 200 µM
- Resistant Factor, A2780 [6]: > 13.25
- IC50 [7]: > 200 µM
- Resistant Factor, OV2008/C13 pair [7]: > 11.0

Structure (SMILES): Cc1ccnc(-c2cc(C)ccn2)c1 [Me2-bpy]
- species detected in blood samples by HPLC-MS ([8]; 40 mg/kg intraperitoneal of complex 2, 5 min to 24 hours): only the free ligand of Me2-bpy was detected
- free ligand signal (m/z 185.1071) in samples after 2-hour time interval ([8]; 40 mg/kg intraperitoneal of complex 2, after 2 hours): very weak or no detectable signal

Structure (SMILES): CCCCCCCCCc1ccnc(-c2cc(CCCCCCCCC)ccn2)c1.CCCCCCCCCc1ccnc(-c2cc(CCCCCCCCC)ccn2)c1.CCCCCCCCCc1ccnc(-c2cc(CCCCCCCCC)ccn2)c1.F[P-](F)(F)(F)(F)F.F[P-](F)(F)(F)(F)F.F[P-](F)(F)(F)(F)F.[Co+3] [complex 6, [Co^III(4,4’-(C9H19)2-bpy)3](PF6)3]
- IC50 [9]: 36.5 µM
- IC50 [1]: 36.3 µM
- IC50 ([10]; HCT-8 taxol-resistant, MTT, 72 h): 41.1 µM
- Resistant Factor, HCT-8 ([10]; IC50 of taxol-resistant cells over IC50 of taxol-sensitive cells, HCT-8): 0.73
- IC50 [11]: 28.5 µM
- IC50 [2]: 30.2 µM
- IC50 [12]: 56.4 µM
- IC50 [13]: 37.4 µM
- IC50 [14]: 10.4 µM
- IC50 [15]: 54.3 µM
- IC50 [16]: 54.1 µM
- IC50 [17]: 10.4 to 82.8 µM
- IC50 [4]: 35.9 µM
- Resistant Factor, SGC-7901 [4]: 0.99
- IC50 [18]: 24.2 µM
- Resistant Factor, MCF-7 ([19]; IC50 of taxol-resistant cells over IC50 of taxol-sensitive cells, MCF-7): 0.39
- IC50 ([19]; MCF-7 taxol-resistant, MTT, 72 h): 11.1 µM
- IC50 [5]: 49.4 µM
- IC50 [20]: 40.2 µM
- IC50 ([21]; HCT116 p53-/-, MTT, 72 h): 34.1 µM
- Resistant Factor, HCT116 p53-/- vs p53+/+ ([21]; IC50 p53-/- over IC50 p53+/+): 0.93
- IC50 [6]: 29.1 µM
- Resistant Factor, A2780 [6]: 0.96
- IC50 [22]: 82.8 µM
- IC50 [7]: 92.6 µM
- Resistant Factor, OV2008/C13 pair [7]: 1.87
- IC50 [23]: 26.7 µM
- IC50 [24]: 21.3 µM
- IC50 ([25]; A549 taxol-resistant, MTT, 72 h): 2.6 µM
- Resistant Factor, A549 ([25]; IC50 of taxol-resistant cells over IC50 of taxol-sensitive cells, A549): 0.05
- IC50 [26]: 26 µM

Source: article PMC5589637, “New perspectives of cobalt tris(bipyridine) system: anti-cancer effect and its collateral sensitivity towards multidrug-resistant (MDR) cancers” (Oncotarget, 2017)
